Laboratory results taken from publication PMC5784979, “Direct comparison of the four aldehyde oxidase enzymes present in mouse gives insight into their substrate specificities” (PLoS ONE, 2018).

Target: T1, mAOX4 (Mus musculus, UniProt Q3TYQ9)
T1 construct: gene Aox4; recombinant from E. coli TP1000 (plasmid pMAOX4), Ni-NTA and Superdex 200 purified, chemically sulfurated, dimer (300 kDa)
T1 sequence (Q3TYQ9 1-1336): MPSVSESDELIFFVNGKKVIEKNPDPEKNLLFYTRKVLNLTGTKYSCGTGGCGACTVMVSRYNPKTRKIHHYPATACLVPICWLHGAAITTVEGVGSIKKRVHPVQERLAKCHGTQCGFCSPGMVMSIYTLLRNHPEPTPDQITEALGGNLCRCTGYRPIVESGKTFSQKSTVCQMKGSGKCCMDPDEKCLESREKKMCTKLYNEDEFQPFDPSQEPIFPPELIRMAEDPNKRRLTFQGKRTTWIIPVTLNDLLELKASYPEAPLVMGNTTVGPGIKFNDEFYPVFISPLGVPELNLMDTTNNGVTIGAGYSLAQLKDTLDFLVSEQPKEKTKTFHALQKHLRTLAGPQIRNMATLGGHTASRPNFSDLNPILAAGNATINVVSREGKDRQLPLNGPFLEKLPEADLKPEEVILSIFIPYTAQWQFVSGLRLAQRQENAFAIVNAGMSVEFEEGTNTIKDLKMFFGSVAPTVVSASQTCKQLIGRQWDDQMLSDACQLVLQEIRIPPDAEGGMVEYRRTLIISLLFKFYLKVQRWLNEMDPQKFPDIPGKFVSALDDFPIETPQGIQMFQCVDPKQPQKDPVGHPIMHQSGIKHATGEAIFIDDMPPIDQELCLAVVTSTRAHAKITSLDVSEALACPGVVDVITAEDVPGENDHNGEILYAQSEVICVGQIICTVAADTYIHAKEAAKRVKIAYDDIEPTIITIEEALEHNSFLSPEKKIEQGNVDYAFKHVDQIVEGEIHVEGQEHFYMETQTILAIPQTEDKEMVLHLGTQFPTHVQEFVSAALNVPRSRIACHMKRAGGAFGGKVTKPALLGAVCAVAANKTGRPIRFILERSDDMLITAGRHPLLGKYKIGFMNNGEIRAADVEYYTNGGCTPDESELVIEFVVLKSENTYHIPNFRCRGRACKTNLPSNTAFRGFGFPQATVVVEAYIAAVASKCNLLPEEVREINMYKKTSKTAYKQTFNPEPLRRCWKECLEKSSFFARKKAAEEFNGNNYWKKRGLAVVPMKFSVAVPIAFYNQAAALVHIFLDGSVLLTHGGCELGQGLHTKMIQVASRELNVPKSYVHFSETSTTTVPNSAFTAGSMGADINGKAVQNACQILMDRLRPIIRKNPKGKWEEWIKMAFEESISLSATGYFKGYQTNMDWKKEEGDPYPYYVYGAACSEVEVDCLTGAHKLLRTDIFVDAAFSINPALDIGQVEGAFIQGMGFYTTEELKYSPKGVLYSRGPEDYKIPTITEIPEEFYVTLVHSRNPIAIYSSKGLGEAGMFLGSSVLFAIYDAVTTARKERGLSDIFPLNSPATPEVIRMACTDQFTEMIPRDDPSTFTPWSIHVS
Test: DCPIP reduction at […] nm, steady-state kinetics
Format: biochemical
Details: 100 μM DCPIP as electron acceptor, 50 mM Tris-HCl, 1 mM EDTA, pH 8.0, 37°C, corrected to 100% Mo saturation

| Km [mM] | Km (limit given jointly for mAOX3, mAOX4 and mAOX2) [mM] | Compound |
| --- | --- | --- |
| 4.4 to 4.6 | – | CC=O [acetaldehyde] |
| – | < 0.002 | O=Cc1ccc(O)cc1 [4-hydroxybenzaldehyde] |
